Reference: patent publication US12168664B2, “Triazolopyrimidines, their preparation and use” (THE TRUSTEES OF COLUMBIA UNIVERSITY IN THE CITY OF NEW YORK, priority 2018, dated 2024)
Where “and” joins values, the source holds several entries; their conditions need not be identical. Identical values can stand only once.

Key:
human RBP4 = human RBP4 (Homo sapiens (Human), UniProt P02753); assay: SPA binding assay for RBP4 (scintillation proximity, 3H-retinol displacement); settings: 10 nM 3H-retinol, 50 nM biotinylated RBP4
Method: Scintillation Proximity RBP4 Binding Assay
Untagged human RBP4 purified from the urine of tubular proteinuria patients was purchased from Fitzgerald Industries International. It was biotinylated using the EZ-Link Sulfo-NHS-LC-Biotinylation kit from Pierce following the manufacturer's recommendations. […] Nonspecific binding was determined in the presence of 20 μM of unlabeled retinol. The reaction mix was assembled in the dark under dim red light. The plates were sealed with clear tape (TopSeal-A: 96-well microplate, PerkinElmer), wrapped in the aluminum foil, and allowed to equilibrate 6 hours at room temperature followed by overnight incubation at +4° C. Radiocounts were measured using a TopCount NXT counter (Packard Instrument Company).
(§1) The compounds listed below were tested in two in vitro assays, RBP4 binding (SPA) and retinol-dependent RBP4-TTR interaction (HTRF) (Table 1).

RBP4-TTR interaction = RBP4-TTR interaction (Homo sapiens (Human), UniProt P02753); assay: HTRF (TR-FRET) assay for antagonists of retinol-induced RBP4-TTR interaction; assay type: biochemical; settings: in the presence of 1 μM retinol
From the text: TR-FRET Assay for Retinol-Induced RBP4-TTR Interaction
Binding of a desired RBP4 antagonist displaces retinol and induces hindrance for RBP4-TTR interaction resulting in the decreased FRET signal (FIG. 7). Bacterially expressed MBP-RBP4 and untagged TTR were used in this assay. For the use in the TR-FRET assay, the maltose binding protein (MBP)-tagged human RBP4 fragment (amino acids 19-201) was expressed in the Gold(DE3)pLysS E. coli strain (Stratagene) using the pMAL-c4x vector. Following cell lysis, recombinant RBP4 was purified from the soluble fraction using the ACTA FPLC system (GE Healthcare) equipped with the 5-ml the MBP Trap HP column. Human untagged TTR was purchased from Calbiochem. Untagged TTR was labeled directly with Eu^3+ Cryptate-NHS using the HTRF Cryptate Labeling kit from CisBio following the manufacturer's recommendations. HTRF assay was performed in white low volume 384 well plates (Greiner-Bio) in a final assay volume of 16 μl per well. […] Titration of test compounds in this assay was conducted in the presence of 1 μM retinol. […] TR-FRET signal was measured in the SpectraMax M5e Multimode Plate Reader (Molecular Device). […] The TR-FRET signal was expressed as the ratio of fluorescence intensity: Flu665/Flu620×10,000.
as §1

PPARγ = PPARγ (Homo sapiens (Human), UniProt P37231); assay: PPARγ agonist assay (HTRF, PPARγ-NCOR interaction); assay type: biochemical; settings: read-out: PPAR γ assay (HTRF) for agonists of this nuclear receptor - IC50
From the text: Significant safety issues are associated with the clinical use of PPARγ agonists (increased risk of death, myocardial infarction, stroke, congestive heart failure, hepatotoxicity, peripheral edema, weight gain and carcinogenicity^1-4). We wanted to characterize the compounds we identified in a pilot screen as potential PPARγ agonists. The PPARγ assay is based on agonist-sensitive interaction of the GST-tagged ligand-binding domain (LRD) of the nuclear receptor PPARγ with the biotinylated corepressor NCOR peptide (FIG. 8).
Assay reactions are performed in a final volume of 16 ul.
In well of the 384-well assay plate, mix 6 ul of PPARγ solution, 4 ul of NCOR2 solution and 4 μl of Rosi solution. Test compounds diluted from DMSO stocks to 4× assay concentration in 1×HTRF, 100 mM KF buffer may be dispensed to well instead of Rosi. Negative control wells contained DMSO solvent alone; positive control well contained […]. […] Two μl of detection mix was added per well. […] The plate was incubated for 16 hrs at 4° C.
HTRF signal was measured in the SpectraMax M5e Multimode Plate Reader (Molecular Device). Fluorescence was excited at 337 nm. […] The signal was expressed as the ratio of fluorescence intensity: Flu668/Flu620×10,000. […]

[1] = Metabolic stability in liver microsomes (HLM); assay type: in vitro ADME, human
Method: (§2) The compounds listed below were tested in various metabolic stability and CYP inhibition assays.

CYP2C9 = CYP2C9 (Homo sapiens (Human), UniProt P11712); assay: CYP inhibition, fluorescent, CYP2C9; assay type: in vitro ADME
Method: as §2

CYP2C19 = CYP2C19 (Homo sapiens (Human), UniProt P33261); assay: CYP inhibition, fluorescent, CYP2C19; assay type: in vitro ADME
Method: as §2

CYP2D6 = CYP2D6 (Homo sapiens (Human), UniProt P10635); assay: CYP inhibition, fluorescent, CYP2D6; assay type: in vitro ADME
Method: as §2

CYP3A4 = CYP3A4 (Homo sapiens (Human), UniProt P08684); assay: CYP inhibition, fluorescent, CYP3A4; assay type: in vitro ADME
Method: as §2

serum RBP4 = serum RBP4 (Mus musculus (Mouse), UniProt Q00724); assay: Serum RBP4 reduction in Balb/c mice after a single oral administration; assay type: in vivo; settings: at 6 hr timepoint
Method: Pharmacodynamic Studies of 7a and 7p in Balb/c Mice Following a Single Oral Administration
Animal protocols were approved by the Institutional Animal Care and Use Committee of Columbia University and complied with guidelines set forth by The Association for Research in Vision and Ophthalmology. Compounds were prepared as a suspension in 0.9% NaCl, 2% Tween 80 for oral administration. Compounds were administered to Balb/c mice in a volume of 100 μL through oral gavage. The doses used were 15 mg/kg, 25 mg/kg and 35 mg/kg for 7a while two doses, 25 mg/kg and 35 mg/kg, were tested for DENG-31(FFB-0000082). Blood samples were collected at pre-dose and 1 hr, 2 hr, 4 hr, 6 hr, 8 hr, and 24 hr timepoints. Whole blood was drawn into a centrifuge tube and was let clot at room temperature for 30 min followed by centrifugation at 2,000×g for 15 minutes at +4° C. to collect serum. Serum RBP4 was measured using the RBP4 (mouse/rat) dual ELISA kit (AdipoGen) following the manufacturer's instructions.
In order to attain this objective, the effect of oral compound administration was studied in mice. Three doses of compound 7a and two doses of 7p were tested in Balb/c mice assay for reduction of serum RBP4.

CYP2D6, sequence (P10635 whole entry, species assumed): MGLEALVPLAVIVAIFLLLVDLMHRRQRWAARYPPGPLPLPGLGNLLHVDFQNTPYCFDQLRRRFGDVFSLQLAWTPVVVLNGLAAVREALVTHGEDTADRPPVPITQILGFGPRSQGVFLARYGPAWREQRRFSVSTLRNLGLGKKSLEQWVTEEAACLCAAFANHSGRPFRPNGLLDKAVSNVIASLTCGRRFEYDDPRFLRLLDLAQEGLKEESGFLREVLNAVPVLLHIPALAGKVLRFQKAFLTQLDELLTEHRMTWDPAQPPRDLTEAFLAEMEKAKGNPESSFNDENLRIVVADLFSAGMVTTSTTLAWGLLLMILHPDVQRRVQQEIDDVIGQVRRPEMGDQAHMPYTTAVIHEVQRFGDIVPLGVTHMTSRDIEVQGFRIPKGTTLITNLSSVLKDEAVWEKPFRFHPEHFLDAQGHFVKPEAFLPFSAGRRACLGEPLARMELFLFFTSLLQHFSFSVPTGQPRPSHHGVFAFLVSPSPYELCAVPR
PPARγ, sequence (P37231 204-505): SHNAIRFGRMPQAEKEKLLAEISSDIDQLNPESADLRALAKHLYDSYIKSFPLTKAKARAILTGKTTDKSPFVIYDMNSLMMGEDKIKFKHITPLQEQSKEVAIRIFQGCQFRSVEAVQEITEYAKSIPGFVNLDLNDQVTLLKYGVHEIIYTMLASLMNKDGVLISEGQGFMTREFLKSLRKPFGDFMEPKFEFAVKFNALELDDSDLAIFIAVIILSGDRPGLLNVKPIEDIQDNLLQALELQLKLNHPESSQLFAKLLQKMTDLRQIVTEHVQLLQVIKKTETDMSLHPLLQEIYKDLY
CYP2C9, sequence (P11712 whole entry, species assumed): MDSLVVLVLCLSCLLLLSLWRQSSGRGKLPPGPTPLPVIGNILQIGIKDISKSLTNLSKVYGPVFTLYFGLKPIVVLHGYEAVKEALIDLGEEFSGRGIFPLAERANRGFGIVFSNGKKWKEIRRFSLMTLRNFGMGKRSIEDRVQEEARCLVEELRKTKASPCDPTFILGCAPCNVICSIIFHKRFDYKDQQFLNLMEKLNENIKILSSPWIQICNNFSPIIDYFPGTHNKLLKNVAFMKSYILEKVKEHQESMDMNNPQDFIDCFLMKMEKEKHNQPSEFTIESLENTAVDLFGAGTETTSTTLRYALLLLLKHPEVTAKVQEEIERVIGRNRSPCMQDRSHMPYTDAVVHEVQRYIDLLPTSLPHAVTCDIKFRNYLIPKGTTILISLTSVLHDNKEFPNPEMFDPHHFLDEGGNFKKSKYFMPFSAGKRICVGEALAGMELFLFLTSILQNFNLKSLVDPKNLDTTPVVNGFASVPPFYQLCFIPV
CYP3A4, sequence (P08684 whole entry, species assumed): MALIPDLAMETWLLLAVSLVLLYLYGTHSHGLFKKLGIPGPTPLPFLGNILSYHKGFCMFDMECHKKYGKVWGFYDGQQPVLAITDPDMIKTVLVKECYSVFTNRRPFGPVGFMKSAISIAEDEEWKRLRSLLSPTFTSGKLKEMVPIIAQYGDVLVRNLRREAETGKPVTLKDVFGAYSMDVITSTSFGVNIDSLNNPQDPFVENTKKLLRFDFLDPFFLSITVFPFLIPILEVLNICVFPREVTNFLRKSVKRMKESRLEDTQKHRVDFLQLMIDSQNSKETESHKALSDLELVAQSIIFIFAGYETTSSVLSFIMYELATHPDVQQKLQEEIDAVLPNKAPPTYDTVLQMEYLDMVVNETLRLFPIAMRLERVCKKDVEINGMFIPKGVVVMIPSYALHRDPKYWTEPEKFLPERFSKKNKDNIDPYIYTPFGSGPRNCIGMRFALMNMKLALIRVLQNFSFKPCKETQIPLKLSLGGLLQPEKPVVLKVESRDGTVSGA
CYP2C19, sequence (P33261 whole entry, species assumed): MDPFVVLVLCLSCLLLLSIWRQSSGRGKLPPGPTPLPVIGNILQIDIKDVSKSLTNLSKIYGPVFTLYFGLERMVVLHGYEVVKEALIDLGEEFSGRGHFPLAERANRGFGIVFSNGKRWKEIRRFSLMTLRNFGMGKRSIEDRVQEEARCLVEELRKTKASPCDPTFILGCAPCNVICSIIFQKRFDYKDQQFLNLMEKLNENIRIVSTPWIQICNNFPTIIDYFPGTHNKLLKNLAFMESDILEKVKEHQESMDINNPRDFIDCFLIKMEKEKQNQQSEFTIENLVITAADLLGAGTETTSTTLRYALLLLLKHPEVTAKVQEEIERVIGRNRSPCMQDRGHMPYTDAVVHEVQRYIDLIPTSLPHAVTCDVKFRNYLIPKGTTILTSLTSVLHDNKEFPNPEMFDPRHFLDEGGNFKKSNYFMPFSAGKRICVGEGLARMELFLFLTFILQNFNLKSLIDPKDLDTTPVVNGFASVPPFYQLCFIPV

IC50 (human RBP4) [nM]	IC50 (RBP4-TTR interaction)	IC50 (PPARγ) [nM]	Compound	further results
46	661 nM	> 100000	O=C(c1nnc2ncccn12)N1C[C@H]2C[C@@H](c3ccccc3C(F)(F)F)C[C@H]2C1 [Compound 7b]	
39	949 nM	> 100000	O=C(c1nc2ncc(Br)cn2n1)N1C[C@H]2C[C@@H](c3ccccc3C(F)(F)F)C[C@H]2C1 [Compound 7c]	
122	306 nM and 1850 nM and 2800 nM	> 100000	Cc1ccnc2nc(C(=O)N3C[C@H]4C[C@@H](c5ccccc5C(F)(F)F)C[C@H]4C3)nn12 [Compound 7d]	
		> 100000	Cc1cnc2nc(C(=O)N3C[C@H]4C[C@@H](c5ccccc5C(F)(F)F)C[C@H]4C3)nn2c1 [Compound 7e]	Metabolic stability in liver microsomes: % Remaining at 30 min, HLM [1]: 85% and 66%; IC50 (CYP2C9): 16000 nM and 50000 nM; IC50 (CYP2C19): > 100000 nM; IC50 (CYP2D6): 12400 nM and 36000 nM
108	4580 nM and 7440 nM	> 100000	Cc1cc(C)n2nc(C(=O)N3C[C@H]4C[C@@H](c5ccccc5C(F)(F)F)C[C@H]4C3)nc2n1 [Compound 7f]	
45	415 nM	> 100000	Cc1ccn2c(C(=O)N3C[C@H]4C[C@@H](c5ccccc5C(F)(F)F)C[C@H]4C3)nnc2n1 [Compound 7g]	Metabolic stability in liver microsomes: % Remaining at 30 min, HLM [1]: 61%; IC50 (CYP2C19): > 100000 nM; IC50 (CYP2D6): > 100000 nM; IC50 (CYP3A4): > 100000 nM
38	410 nM	> 100000	O=C(c1nc2ncccn2n1)N1C[C@H]2C[C@@H](c3cc(F)ccc3C(F)(F)F)C[C@H]2C1 [Compound 7h]	
	494 nM		O=C(c1nc2ncc(CCO)cn2n1)N1C[C@H]2C[C@@H](c3cc(F)ccc3C(F)(F)F)C[C@H]2C1 [Compound 7i]	
16	200 nM	> 100000	O=C(c1nc2ncc(CCO)cn2n1)N1C[C@H]2C[C@@H](c3ccccc3C(F)(F)F)C[C@H]2C1 [Compound 7j]	Metabolic stability in liver microsomes: % Remaining at 30 min, HLM [1]: 73%; IC50 (CYP2C9): 60000 nM; IC50 (CYP2C19): > 100000 nM; IC50 (CYP2D6): > 100000 nM; IC50 (CYP3A4): > 100000 nM
67	1010 nM	> 100000	COCCc1cnc2nc(C(=O)N3C[C@H]4C[C@@H](c5ccccc5C(F)(F)F)C[C@H]4C3)nn2c1 [Compound 7k]	
23	230 nM	> 100000	CC(=O)OCCc1cnc2nc(C(=O)N3C[C@H]4C[C@@H](c5ccccc5C(F)(F)F)C[C@H]4C3)nn2c1 [Compound 7l]	
247	1470 nM	> 100000	NCCc1cnc2nc(C(=O)N3C[C@H]4C[C@@H](c5ccccc5C(F)(F)F)C[C@H]4C3)nn2c1 [Compound 7m]	
67	628 nM	> 100000	O=C(c1nc2ncc(CCCl)cn2n1)N1C[C@H]2C[C@@H](c3ccccc3C(F)(F)F)C[C@H]2C1 [Compound 7n]	
22	257 nM	> 100000	O=C(c1nc2ncc(CCO)cn2n1)N1C[C@@H]2CN(c3ccccc3C(F)(F)F)C[C@@H]2C1 [Compound 7o]	IC50 (CYP2C19): > 20000 nM; IC50 (CYP2D6): > 20000 nM; IC50 (CYP3A4): > 20000 nM
37	150 nM	> 100000	O=C(c1nc2ncc(CCO)cn2n1)N1C[C@@H]2CN(c3cc(F)ccc3C(F)(F)F)C[C@@H]2C1 [Compound 7p]	Metabolic stability in liver microsomes: % Remaining at 30 min, HLM [1]: 73%; IC50 (CYP2C9): > 20000 nM; IC50 (CYP2C19): > 20000 nM; IC50 (CYP2D6): > 20000 nM; IC50 (CYP3A4): > 20000 nM; maximum serum RBP4 reduction (serum RBP4; single 25 mg/kg PO): 89%; maximum serum RBP4 reduction (serum RBP4; single 35 mg/kg PO): 87%
31	491 nM	> 100000	O=C(c1nc2ncc(CCO)cn2n1)N1C[C@@H]2CN(c3cc(F)ccc3C(F)(F)F)C[C@@H]2C1 [Compound 7q]	Metabolic stability in liver microsomes: % Remaining at 30 min, HLM [1]: 26%
	> 30000 nM		O=C(c1c[nH]c2cnccc12)N1C[C@H]2C[C@@H](c3ccccc3C(F)(F)F)C[C@H]2C1 [Compound 8a]	
	> 30000 nM		O=C(c1c[nH]c2ccncc12)N1C[C@H]2C[C@@H](c3ccccc3C(F)(F)F)C[C@H]2C1 [Compound 8b]	
27.3			O=C(c1nc2ncccn2n1)N1C[C@H]2C[C@@H](c3ccccc3C(F)(F)C(F)(F)F)C[C@H]2C1 [Compound 9a]	
82.9	1130 nM		Cc1ccn2c(C(=O)N3C[C@H]4C[C@@H](c5ccccc5OC(F)(F)F)C[C@H]4C3)nnc2n1 [Compound 9c]	
88.1	1450 nM		O=C(c1cnc2ncccn12)N1C[C@H]2C[C@@H](c3ccccc3OC(F)(F)F)C[C@H]2C1 [Compound 9d]	
57.1	450 nM		Cc1cnc2nc(C(=O)N3C[C@H]4C[C@@H](c5ccccc5OC(F)(F)F)C[C@H]4C3)nn2c1 [Compound 9f]	
78.4	741 nM		O=C(c1cn2cccnc2n1)N1C[C@H]2C[C@@H](c3ccccc3OC(F)(F)F)C[C@H]2C1 [Compound 9g]	
104	2480 nM		Cc1ccn2cc(C(=O)N3C[C@H]4C[C@@H](c5ccccc5OC(F)(F)F)C[C@H]4C3)nc2c1 [Compound 9h]	
443	20400 nM		O=C(c1nc2nc(C(F)(F)F)ccn2n1)N1C[C@H]2C[C@@H](c3ccccc3OC(F)(F)F)C[C@H]2C1 [Compound 9i]	
	551 nM and 473 nM		O=C(c1nc2ncccn2n1)N1C[C@H]2C[C@@H](c3ccccc3OC(F)(F)F)C[C@H]2C1 [Compound 9j]	
14800			Cc1ccccc1[C@@H]1C[C@@H]2CN(C(=O)c3nc4ncccn4n3)C[C@@H]2C1 [Compound 10a]	
	40.8 nM		CC(C)c1ccccc1[C@@H]1C[C@@H]2CN(C(=O)c3nc4ncccn4n3)C[C@@H]2C1 [Compound 10c]	
	300 nM		O=C(c1nc2ncccn2n1)N1C[C@H]2C[C@@H](c3ccccc3-c3ccccc3)C[C@H]2C1 [Compound 10d]	
